Assays:
[1] = test system: recombinant human anti-SARS-CoV antibody 03-018; format: binding; parameters: Binding of antibody 03-018 to linear peptides of the N protein of SARS-CoV Urbani / Binding of antibody 03-018 to looped/cyclic peptides of the N protein of SARS-CoV Urbani: unit not given here
[2] = test system: rabbit serum obtained by immunizing a rabbit with the SARS-CoV strain Frankfurt 1; format: binding; parameters: Binding of a rabbit serum to linear peptides / Binding of a rabbit serum to looped peptides / Rabbit serum linear peptides / Rabbit serum looped peptides / Binding of a rabbit serum to linear peptides of protein N of SARS-CoV Urbani (Rabbit serum linear peptides) / Binding of a rabbit serum to looped/cyclic peptides of protein N of SARS-CoV Urbani (Rabbit serum looped peptides): unit not given here
[3] = test system: antibodies in sera from SARS patients (sera 1a, 1b, 2, 6, 37, 62, London, SARS-yellow, SARS-green); format: binding, human; parameters: Binding of serum 6 to linear peptides of protein X1 of SARS-CoV Urbani / Binding of serum 37 to linear peptides of protein X1 of SARS-CoV Urbani / Binding of serum 6 to looped/cyclic peptide (PEPSCAN-ELISA) / Binding of serum 37 to looped/cyclic peptide (PEPSCAN-ELISA) / Binding of serum 37 to looped/cyclic peptides of protein X1 of SARS-CoV Urbani / Binding of serum 6 to linear peptides of protein X2 / Binding of serum 37 to linear peptides of protein X2 / Binding of serum 37 to looped/cyclic peptides of protein X2 of SARS-CoV Urbani / Binding of serum 6 to linear peptides of protein M of SARS-CoV Urbani / Binding of serum 37 to linear peptides of protein M of SARS-CoV Urbani / Binding of serum 6 to looped/cyclic peptides of protein M of SARS-CoV Urbani / Binding of serum 37 to looped/cyclic peptides of protein M of SARS-CoV Urbani / Binding of serum 6 to linear peptides of protein X3 of SARS-CoV Urbani / Binding of serum 37 to linear peptides of protein X3 of SARS-CoV Urbani / Binding of serum 37 to looped/cyclic peptides of protein X3 of SARS-CoV Urbani / Binding of serum 6 to linear peptides of protein X4 of SARS-CoV Urbani / Binding of serum 37 to linear peptides of protein X4 of SARS-CoV Urbani / Binding of serum 37 to looped/cyclic peptides of protein X4 of SARS-CoV Urbani / Binding of serum 6 to linear peptides of protein X5 of SARS-CoV Urbani / Binding of serum 37 to linear peptides of protein X5 of SARS-CoV Urbani / Binding of serum 37 to looped/cyclic peptides of protein X5 of SARS-CoV Urbani / Binding of serum 6 to linear peptides of protein N of SARS-CoV Urbani / Binding of serum 37 to linear peptides of protein N of SARS-CoV Urbani / Binding of serum 6 to linear peptide (PEPSCAN-ELISA) / Binding of serum 1a to looped/cyclic peptides of protein N of SARS-CoV Urbani / Binding of serum 1b to looped/cyclic peptides of protein N of SARS-CoV Urbani / Binding of serum 2 to looped/cyclic peptides of protein N of SARS-CoV Urbani / Binding of serum 6 to looped/cyclic peptides of protein N of SARS-CoV Urbani / Binding of serum 37 to looped/cyclic peptides of protein N of SARS-CoV Urbani / Binding of serum 62 to looped/cyclic peptides of protein N of SARS-CoV Urbani / Binding of serum London to looped/cyclic peptides of protein N of SARS-CoV Urbani / Binding of serum SARS-green to looped/cyclic peptides of protein N of SARS-CoV Urbani: unit not given here
[4] = test system: control sera (pooled serum of ten healthy LUMC hospital workers; commercial negative donor pooled serum from the Dutch bloodbank); format: binding, human; parameters: Binding of Control serum LUMC to linear peptides / Binding of Control serum Blood-bank to linear peptides / Binding of Control serum LUMC to looped peptides / Binding of Control Serum Blood-Bank to Looped peptides / Binding of Control serum LUMC to linear peptides of the protein M of SARS-CoV Urbani / Binding of Control serum Blood-bank to linear peptides of the protein M of SARS-CoV Urbani / Binding of Control serum LUMC to looped peptides of the protein M of SARS-CoV Urbani / Binding of Control Serum Blood-Bank to Looped peptides of the protein M of SARS-CoV Urbani: unit not given here

Sequence	Binding of antibody 03-018 to linear peptides of the N protein of SARS-CoV Urbani [1]	Binding of antibody 03-018 to looped/cyclic peptides of the N protein of SARS-CoV Urbani [1]	Binding of a rabbit serum to linear peptides of protein N of SARS-CoV Urbani (Rabbit serum linear peptides) [2]	Binding of a rabbit serum to looped/cyclic peptides of protein N of SARS-CoV Urbani (Rabbit serum looped peptides) [2]	Binding of serum 1a to linear peptides of protein N of SARS-CoV Urbani [3]	Binding of serum 1a to looped/cyclic peptides of protein N of SARS-CoV Urbani [3]	Binding of serum 1b to linear peptides of protein N of SARS-CoV Urbani [3]	Binding of serum 1b to looped/cyclic peptides of protein N of SARS-CoV Urbani [3]	Binding of serum 2 to linear peptides of protein N of SARS-CoV Urbani [3]	Binding of serum 2 to looped/cyclic peptides of protein N of SARS-CoV Urbani [3]	Binding of serum 6 to looped/cyclic peptides of protein N of SARS-CoV Urbani [3]	Binding of serum 37 to looped/cyclic peptides of protein N of SARS-CoV Urbani [3]	Binding of serum 62 to looped/cyclic peptides of protein N of SARS-CoV Urbani [3]	Binding of serum London to looped/cyclic peptides of protein N of SARS-CoV Urbani [3]	Binding of serum SARS-green to looped/cyclic peptides of protein N of SARS-CoV Urbani [3]	Binding of serum SARS-yellow to looped/cyclic peptides of protein N of SARS-CoV Urbani [3]	Binding of Control Serum Blood-Bank to Looped peptides [4]	Binding of Control serum Blood-bank to linear peptides [4]	Binding of Control serum LUMC to linear peptides [4]	Binding of Control serum LUMC to looped peptides [4]	other results
NQNGGRNGARPKQRR	0.2	0.2	0.5	1.1	0.2	0.2	0.1	0.1	0.3	0.2	0.2	0.4	0.3	0.3	0.2	0.3	0.6	0.7	0.8	0.5	Binding of serum 6 to linear peptides of protein N of SARS-CoV Urbani [3]: 0.3; Binding of serum 37 to linear peptides of protein N of SARS-CoV Urbani [3]: 0.8; Binding of serum 62 to linear peptides of protein N of SARS-CoV Urbani [3]: 0.7; Binding of serum London to linear peptides of protein N of SARS-CoV Urbani [3]: 0.5; Binding of serum SARS-green to linear peptides of protein N of SARS-CoV Urbani [3]: 0.5; Binding of serum SARS-yellow to linear peptides of protein N of SARS-CoV Urbani [3]: 0.6
RGPEQTQGNFGDQDL	0.1	0.2	0.2	0.3	–	0.4	–	0.4	–	0.4	0.2	0.6	0.5	0.4	0.6	0.6	0.4	0.7	0.7	0.6	Recognition of the peptide by sera of SARS-CoV infected individuals, and form (linear, looped/cyclic) in which it is recognized [3]: recognized in linear form
PSASAFFGMSRIGME	0.1	0.2	0.1	0.3	0.2	0.4	0.1	0.3	0.1	0.3	0.2	0.6	0.4	0.3	0.3	0.4	–	–	–	–	Binding of serum 6 to linear peptides of protein N of SARS-CoV Urbani [3]: 0.1; Binding of serum 37 to linear peptides of protein N of SARS-CoV Urbani [3]: 0.6; Binding of serum 62 to linear peptides of protein N of SARS-CoV Urbani [3]: 0.5; Binding of serum London to linear peptides of protein N of SARS-CoV Urbani [3]: 0.5; Binding of serum SARS-green to linear peptides of protein N of SARS-CoV Urbani [3]: 0.1; Binding of serum SARS-yellow to linear peptides of protein N of SARS-CoV Urbani [3]: 0.6; Control Serum Blood-Bank Looped peptides [4]: 0.4; Control serum Blood-bank linear peptides [4]: 0.6; Control serum LUMC linear peptides [4]: 0.6; Control serum LUMC looped peptides [4]: 0.5
LRFPRGQGVPINTNS	0.1	0.2	0.2	0.6	0.2	0.3	0.1	0.2	0.3	0.4	0.2	0.6	0.4	0.4	0.6	0.4	0.6	0.7	0.7	0.6	Binding of serum 6 to linear peptides of protein N of SARS-CoV Urbani [3]: 0.2; Binding of serum 37 to linear peptides of protein N of SARS-CoV Urbani [3]: 0.6; Binding of serum 62 to linear peptides of protein N of SARS-CoV Urbani [3]: 0.6; Binding of serum London to linear peptides of protein N of SARS-CoV Urbani [3]: 0.5; Binding of serum SARS-green to linear peptides of protein N of SARS-CoV Urbani [3]: 0.4; Binding of serum SARS-yellow to linear peptides of protein N of SARS-CoV Urbani [3]: 0.5
LLDRLNQLESKVSGK	0.1	0.2	0.6	0.1	–	0.2	–	0.1	–	0.2	0.1	0.4	0.4	0.3	0.0	0.1	0.3	0.7	0.6	0.2	Binding of serum 1a to linear peptide (PEPSCAN-ELISA) [3]: 0.2; Binding of serum 1b to linear peptide (PEPSCAN-ELISA) [3]: 0.1; Binding of serum 2 to linear peptide (PEPSCAN-ELISA) [3]: 0.3; Binding of serum 6 to linear peptide (PEPSCAN-ELISA) [3]: 0.2; Binding of serum 37 to linear peptide (PEPSCAN-ELISA) [3]: 0.7; Binding of serum 62 to linear peptide (PEPSCAN-ELISA) [3]: 0.6; Binding of serum London to linear peptide (PEPSCAN-ELISA) [3]: 0.5; Binding of serum SARS-green to linear peptide (PEPSCAN-ELISA) [3]: 0.4; Binding of serum SARS-yellow to linear peptide (PEPSCAN-ELISA) [3]: 0.7
